Measured values taken from patent US20190125864A1, “COMBINATION THERAPY OF RAMUCIRUMAB AND ABEMACICLIB FOR USE IN TREATMENT OF MANTLE CELL LYMPHOMA” (Eli Lilly and Company, priority 2016, published 2019).

System: human Mino xenografts
Experiment: IVEF study: growth inhibition of subcutaneous Mino xenografts (mantle cell lymphoma) in mice
Type: in vivo
Settings: for % ΔT/C: day 53, baseline day 32
Description: This study evaluates the overall sensitivity of the Mino xenograft model for mantle cell lymphoma (MCL) to growth inhibition by abemaciclib. Accordingly, mice are implanted subcutaneously with human Mino xenografts treated once-daily for 28 days (QD×28) with 25 or 50 mg/kg of abemaciclib monomesylate (“compound”). In addition the response of this model to single-agent DC101, an antibody inhibitor of VEGFR2, is also evaluated as well as the combination of this antibody with abemaciclib. DC101, which is a mouse surrogate of ramucirumab, is evaluated in these studies at a dose of 20 mg/kg given twice-weekly over a period of 4 weeks (BIW×4) whereas mice in the combination group are given this dose of DC101 plus 25 mg/kg of abemaciclib. Tumor volume measurements are taken periodically to determine the effects of the various treatments on tumor growth and periodic body weight measurements are used as a general indicator of tolerability.
Female Fox Chase CB17SCID (Harlan Laboratories) mice are used for these studies. The animals are housed until they reach 18-20 […] in size.
The compound is formulated in 1% hydroxyethyl cellulose (HEC) in 25 mM phosphate buffer (PB) pH=2. The compound is formulated on a weekly basis and stored at 4° C. For the efficacy studies, the compound is administered by oral gavage once-daily for 28 days (PO, QD×28) at doses of 25 or 50 mg/kg using 0.2 ml/dose beginning on day 33 after tumor implantation. The control group is given 1% HEC vehicle according to the same schedule for the compound. The mouse surrogate for ramucirumab known as DC101 is formulated in phosphate buffered saline (PBS) and is given twice-weekly (BIW) for 4 weeks as an intraperitoneal (IP) injection at a dose of 20 mg/kg beginning on day 34. Mice in the combination group are given 25 mg/kg of the compound and 20 mg/kg of DC101 following the schedules outlined above for the monotherapy groups.
The human MCL line Mino is grown in RPMI 1640 medium+20% fetal bovine serum (FBS). Sub-confluent cells are harvested and rinsed twice with Hank's balanced saline solution (HBSS) without serum. For subcutaneous tumors, growth is initiated by subcutaneous injection of 5×10^6 cells in a 1:1 mixture of HBSS and MATRIGEL® (BD Bioscience, Franklin Lakes, N.J.) in the rear flank of each subject animal. When mean tumors volumes reach approximately 150 mm^3 in size, the animals are randomized by tumor size and body weight using a proprietary block randomization allocation tool and placed into their respective treatment groups using 7 animals per group.
Tumor size and body weight are captured using WEB DIRECTOR™. Tumor volume (V) is estimated by using the formula: V=0.536L×W^2 where L=larger of measured diameter and W=smaller of perpendicular diameter. The tumor volume data is transformed to a log scale to equalize variance across time and treatment groups. The log volume data ae analyzed with a two-way repeated measures analysis of variance by time and treatment using the MIXED procedures in SAS software (Version 9.3). The correlation model for the repeated measures is Spatial Power. Treated groups are compared to the control group at each time point. The MIXED procedure is also used separately for each treatment group to calculate adjusted means and standard errors at each time point. Both analyses accounted for the autocorrelation within each animal and the loss of data that occur when animals with large tumors are removed from the study early. The adjusted means and standard errors are plotted for each treatment group versus time.
Relative changes in tumor volume (% ΔT/C) are calculated using the tumor volume measurements taken on the day (day 53) when the control group has to be sacrificed due to tumor sizes that exceeded the threshold defined by ethical guidelines. […]

CCN1CCN(Cc2ccc(Nc3ncc(F)c(-c4cc(F)c5nc(C)n(C(C)C)c5c4)n3)nc2)CC1 [Compound, [5-(4-ethyl-piperazin-1-ylmethyl)-pyridin-2-yl]-[5-fluoro-4-(7-fluoro-3-isopropyl-2-methyl-3H-benzoimidazol-5-yl)-pyrimidin-2-yl]-amine]
% ΔT/C (25 mg/kg Compound PO QD×28, 25 mg/kg): 5.2%
% ΔT/C (25 mg/kg Compound PO QD×28, listed as compound, 25 mg/kg): approximately 5%
% ΔT/C (50 mg/kg Compound PO QD×28, negative value = % regression): −63.6%
Mean Tumor Volume (day 53, 25 mg/kg Compound PO QD×28, CB17SCID mice, subcutaneous Mino xenografts): 317.4 mm^3
Mean Tumor Volume (day 53, 50 mg/kg Compound PO QD×28, CB17SCID mice, subcutaneous Mino xenografts): 55.4 mm^3
mice achieved a partial response (PR) (day 53, 50 mg/kg abemaciclib, 7 of 7 mice): 100%
mean tumor volume reduced (regression) (day 53, 50 mg/kg compound): 64%
Mean Tumor Volume (day 60 (last day of dosing), 25 mg/kg Compound PO QD×28): 348.6 mm^3
Mean Tumor Volume (day 60 (last day of dosing), 50 mg/kg Compound PO QD×28): 37.9 mm^3
